Biological target: Aβ42 (Homo sapiens, UniProt P05067)
Experiment: Th-T (thioflavin-T) assay of Aβ42 aggregation
Assay type: biochemical
Conditions: for Th-T fluorescence, mean of three wells: Aβ42 aggregation time course

Aβ42, sequence (P05067 672-713): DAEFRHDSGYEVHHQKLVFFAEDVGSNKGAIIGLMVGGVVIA

C=C1CC[C@@H]2[C@](C)(CC[C@H]3O[C@H](C=C(C)C)C[C@@]23C)[C@@H]1Cc1c(OC)oc(CO)c(C(=O)OC)c1=O [Compound 21]
first Th-T assay result (Aβ42 (10 μM) ± DPPs (20 μM), room temperature): clearly delayed nuclei formation of Aβ42 | Th-T fluorescence, mean of three wells (reading M117): 1.039 | Th-T fluorescence, mean of three wells (reading M118): 1.038 | Th-T fluorescence, mean of three wells (reading M119): 1.047 | Th-T fluorescence, mean of three wells (reading M120): 1.046 | Th-T fluorescence, mean of three wells (reading M121): 1.028 | Th-T fluorescence, mean of three wells (reading M122): 1.042 | Th-T fluorescence, mean of three wells (reading M123): 1.04 | Th-T fluorescence, mean of three wells (reading M124): 1.043 | Th-T fluorescence, mean of three wells (reading M125): 1.031 | Th-T fluorescence, mean of three wells (reading M126): 1.048 | Th-T fluorescence, mean of three wells (reading M127): 1.027 | Th-T fluorescence, mean of three wells (reading M128): 1.04 | Th-T fluorescence, mean of three wells (reading M129): 1.041 | Th-T fluorescence, mean of three wells (reading M130): 1.048 | nucleation phase of Aβ42 delayed until (Th-T fluorescence of Aβ42 alone began to increase after 4 h): 13 h | Th-T fluorescence, mean of three wells (Fig. 7a) (column suffix _10, measurement M19): 0.2262 | Th-T fluorescence, mean of three wells (Fig. 7a) (column suffix _10, measurement M20): 0.2276 | Th-T fluorescence, mean of three wells (Fig. 7a) (column suffix _10, measurement M21): 0.2311 | Th-T fluorescence, mean of three wells (Fig. 7a) (column suffix _10, measurement M22): 0.2318 | Th-T fluorescence, mean of three wells (Fig. 7a) (column suffix _10, measurement M23): 0.2319 | Th-T fluorescence, mean of three wells (Fig. 7a) (column suffix _10, measurement M24): 0.2323 | Th-T fluorescence, mean of three wells (Fig. 7a) (column suffix _10, measurement M25): 0.2332 | Th-T fluorescence, mean of three wells (Fig. 7a) (column suffix _10, measurement M26): 0.2371 | Th-T fluorescence, mean of three wells (Fig. 7a) (column suffix _10, measurement M27): 0.238 | Th-T fluorescence, mean of three wells (Fig. 7a) (column suffix _10, measurement M28): 0.2386 | Th-T fluorescence, mean of three wells (Fig. 7a) (column suffix _10, measurement M29): 0.2373 | Th-T fluorescence, mean of three wells (Fig. 7a) (column suffix _10, measurement M30): 0.2428 | Th-T assay signal, mean of three wells (Fig. 7a) (column suffix _10, reading M1): 0.2407 | Th-T assay signal, mean of three wells (Fig. 7a) (column suffix _10, reading M2): 0.2463 | Th-T assay signal, mean of three wells (Fig. 7a) (column suffix _10, reading M3): 0.2449 | Th-T assay signal, mean of three wells (Fig. 7a) (column suffix _10, reading M4): 0.2384 | Th-T assay signal, mean of three wells (Fig. 7a) (column suffix _10, reading M5): 0.2363 | Th-T assay signal, mean of three wells (Fig. 7a) (column suffix _10, reading M6): 0.2279 | Th-T assay signal, mean of three wells (Fig. 7a) (column suffix _10, reading M7): 0.2237 | Th-T assay signal, mean of three wells (Fig. 7a) (column suffix _10, reading M8): 0.2225 | Th-T assay signal, mean of three wells (Fig. 7a) (column suffix _10, reading M9): 0.2211 | Th-T assay signal, mean of three wells (Fig. 7a) (column suffix _10, reading M10): 0.2184 | Th-T assay signal, mean of three wells (Fig. 7a) (column suffix _10, reading M11): 0.2174 | Th-T assay signal, mean of three wells (Fig. 7a) (column suffix _10, reading M12): 0.2206 | Th-T assay signal, mean of three wells (Fig. 7a) (column suffix _10, reading M13): 0.2193 | Th-T assay signal, mean of three wells (Fig. 7a) (column suffix _10, reading M14): 0.2201 | Th-T assay signal, mean of three wells (Fig. 7a) (column suffix _10, reading M15): 0.222 | Th-T assay signal, mean of three wells (Fig. 7a) (column suffix _10, reading M16): 0.2237 | Th-T assay signal, mean of three wells (Fig. 7a) (column suffix _10, reading M17): 0.228 | Th-T assay signal, mean of three wells (Fig. 7a) (column suffix _10, reading M18): 0.2253 | Fig. 7a Th-T reading, mean of three wells (column suffix _10, reading M85): 1.478 | Fig. 7a Th-T reading, mean of three wells (column suffix _10, reading M86): 1.509 | Fig. 7a Th-T reading, mean of three wells (column suffix _10, reading M87): 1.557 | Fig. 7a Th-T reading, mean of three wells (column suffix _10, reading M88): 1.549 | Fig. 7a Th-T reading, mean of three wells (column suffix _10, reading M89): 1.5658 | Fig. 7a Th-T reading, mean of three wells (column suffix _10, reading M90): 1.591 | Fig. 7a Th-T reading, mean of three wells (column suffix _10, reading M91): 1.5663 | Fig. 7a Th-T reading, mean of three wells (column suffix _10, reading M92): 1.592 | Fig. 7a Th-T reading, mean of three wells (column suffix _10, reading M93): 1.631 | Fig. 7a Th-T reading, mean of three wells (column suffix _10, reading M94): 1.598 | Fig. 7a Th-T reading, mean of three wells (column suffix _10, reading M95): 1.661 | Fig. 7a Th-T reading, mean of three wells (column suffix _10, reading M96): 1.586 | Fig. 7a Th-T reading, mean of three wells (column suffix _10, reading M97): 1.595 | Fig. 7a Th-T reading, mean of three wells (column suffix _10, reading M98): 1.638 | Fig. 7a Th-T reading, mean of three wells (column suffix _10, reading M99): 1.631 | Fig. 7a Th-T reading, mean of three wells (column suffix _10, reading M100): 1.623 | Fig. 7a Th-T reading, mean of three wells (column suffix _10, reading M101): 1.644 | Fig. 7a Th-T reading, mean of three wells (column suffix _10, reading M102): 1.607 | Fig. 7a Th-T reading, mean of three wells (column suffix _10, reading M103): 1.621 | Fig. 7a Th-T reading, mean of three wells (column suffix _10, reading M104): 1.621 | Fig. 7a Th-T reading, mean of three wells (column suffix _10, reading M105): 1.667 | Fig. 7a Th-T reading, mean of three wells (column suffix _10, reading M106): 1.671 | Th-T fluorescence, mean of three wells (Fig. 7a) (column suffix _20, measurement M19): 0.1942 | Th-T fluorescence, mean of three wells (Fig. 7a) (column suffix _20, measurement M20): 0.198 | Th-T fluorescence, mean of three wells (Fig. 7a) (column suffix _20, measurement M21): 0.1975 | Th-T fluorescence, mean of three wells (Fig. 7a) (column suffix _20, measurement M22): 0.1979 | Th-T fluorescence, mean of three wells (Fig. 7a) (column suffix _20, measurement M23): 0.1984 | Th-T fluorescence, mean of three wells (Fig. 7a) (column suffix _20, measurement M24): 0.2012 | Th-T fluorescence, mean of three wells (Fig. 7a) (column suffix _20, measurement M25): 0.2016 | Th-T fluorescence, mean of three wells (Fig. 7a) (column suffix _20, measurement M26): 0.2021 | Th-T fluorescence, mean of three wells (Fig. 7a) (column suffix _20, measurement M27): 0.2014 | Th-T fluorescence, mean of three wells (Fig. 7a) (column suffix _20, measurement M28): 0.2017 | Th-T fluorescence, mean of three wells (Fig. 7a) (column suffix _20, measurement M29): 0.2027 | Th-T assay signal, mean of three wells (Fig. 7a) (column suffix _20, reading M1): 0.2262 | Th-T assay signal, mean of three wells (Fig. 7a) (column suffix _20, reading M2): 0.223 | Th-T assay signal, mean of three wells (Fig. 7a) (column suffix _20, reading M3): 0.2155 | Th-T assay signal, mean of three wells (Fig. 7a) (column suffix _20, reading M4): 0.2051 | Th-T assay signal, mean of three wells (Fig. 7a) (column suffix _20, reading M5): 0.2019 | Th-T assay signal, mean of three wells (Fig. 7a) (column suffix _20, reading M6): 0.1953 | Th-T assay signal, mean of three wells (Fig. 7a) (column suffix _20, reading M7): 0.1945 | Th-T assay signal, mean of three wells (Fig. 7a) (column suffix _20, reading M8): 0.1954 | Th-T assay signal, mean of three wells (Fig. 7a) (column suffix _20, reading M9): 0.1943 | Th-T assay signal, mean of three wells (Fig. 7a) (column suffix _20, reading M10): 0.1989 | Th-T assay signal, mean of three wells (Fig. 7a) (column suffix _20, reading M11): 0.1963 | Th-T assay signal, mean of three wells (Fig. 7a) (column suffix _20, reading M12): 0.198 | Th-T assay signal, mean of three wells (Fig. 7a) (column suffix _20, reading M13): 0.1957 | Th-T assay signal, mean of three wells (Fig. 7a) (column suffix _20, reading M14): 0.1953 | Th-T assay signal, mean of three wells (Fig. 7a) (column suffix _20, reading M15): 0.1958 | Th-T assay signal, mean of three wells (Fig. 7a) (column suffix _20, reading M16): 0.1968 | Th-T assay signal, mean of three wells (Fig. 7a) (column suffix _20, reading M17): 0.1967 | Th-T assay signal, mean of three wells (Fig. 7a) (column suffix _20, reading M18): 0.1963 | Fig. 7a Th-T reading, mean of three wells (column suffix _20, reading M85): 0.5666 | Fig. 7a Th-T reading, mean of three wells (column suffix _20, reading M86): 0.5976 | Fig. 7a Th-T reading, mean of three wells (column suffix _20, reading M87): 0.6445 | Fig. 7a Th-T reading, mean of three wells (column suffix _20, reading M88): 0.6876 | Fig. 7a Th-T reading, mean of three wells (column suffix _20, reading M89): 0.7312 | Fig. 7a Th-T reading, mean of three wells (column suffix _20, reading M90): 0.7695 | Fig. 7a Th-T reading, mean of three wells (column suffix _20, reading M91): 0.7994 | Fig. 7a Th-T reading, mean of three wells (column suffix _20, reading M92): 0.8356 | Fig. 7a Th-T reading, mean of three wells (column suffix _20, reading M93): 0.8329 | Fig. 7a Th-T reading, mean of three wells (column suffix _20, reading M94): 0.8638 | Fig. 7a Th-T reading, mean of three wells (column suffix _20, reading M95): 0.8786 | Fig. 7a Th-T reading, mean of three wells (column suffix _20, reading M96): 0.9004 | Fig. 7a Th-T reading, mean of three wells (column suffix _20, reading M97): 0.8843 | Fig. 7a Th-T reading, mean of three wells (column suffix _20, reading M98): 0.903 | Fig. 7a Th-T reading, mean of three wells (column suffix _20, reading M99): 0.9153 | Fig. 7a Th-T reading, mean of three wells (column suffix _20, reading M100): 0.9048

— paper PMC7156458, “Synthetic biology based construction of biological activity-related library of fungal decalin-containing diterpenoid pyrones” (Nature Communications, 2020)
